For data set [1] the following is noted: reports in the literature; cited from earlier work.
The conditions of data set [2]: male, Sprague-Dawley, rat, in vivo.
The conditions of data set [3]: etoposide capsules; cited from earlier work.
The nature of data set [4]: 3H-etoposide IV, oral, oral with cyclosporin in rats, whole blood radioactivity (Example 6, NP960102). In kind it is in vivo.
The conditions of data set [5]: Sprague Dawley, rat, in vivo.
A short description of data set [6]: Repeated oral co-administration of paclitaxel with CsA, plasma levels. In kind it is in vivo, rats. The settings on record: repeated regimen.
The nature of another data set: in vivo. Conditions: Sprague Dawley, rat.
In the next data set the test system is metastatic breast cancer. Conditions: continuous 96-hour infusion every three weeks; taxane-failure patients; cited from earlier work.
The conditions of data set [7]: oral; cited from earlier work.
The conditions of data set [8]: Sprague Dawley, rat, in vivo. The source holds these as a separate data set.
Test in data set [9]: not given
The source holds these as a separate data set.

Test in data set [10]: not given
This is another data set of the same source.

[11] abbreviates: oral 3H-paclitaxel 9 mg/kg, cyclosporin dose 2 × 5 mg/kg oral.
The mark [12] stands for this setting: radioactivity of oral 3H-paclitaxel 9 mg/kg, cyclosporin dose 2 × 5 mg/kg oral.
The mark [13] stands for this setting: Grp C, etoposide 1/PO with CsA 5/PO before and with.
Setting [14] is: Sprague Dawley, rat, in vivo, po.
[15] abbreviates: Sprague Dawley, rat, in vivo, po, 9 mg/kg.
Where [16] appears, read: total radioactivity, Paclitaxel IV 9 mg/kg.

Where two headings read alike, the source gives them in different places.

For the compound `C/C=C/C[C@@H](C)[C@@H](OC(C)=O)[C@H]1C(=O)N[C@@H](CC)C(=O)N(C)CC(=O)N(C)[C@@H](CC(C)C)C(=O)N[C@@H](C(C)C)C(=O)N(C)[C@@H](CC(C)C)C(=O)N[C@@H](C)C(=O)N[C@H](C)C(=O)N(C)[C@@H](CC(C)C)C(=O)N(C)[C@@H](CC(C)C)C(=O)N(C)[C@@H](C(C)C)C(=O)N1C` [Cyclosporin Acetyl A, acetyl cyclosporin A], under setting [11], the “% Absorption” value is 25.4%. The AUC0-24 under setting [12] is 8.39 μg eq. hr/ml.
Regarding `C/C=C/C[C@@H](C)[C@@H](O)[C@H]1C(=O)N[C@@H]([C@@H](C)O)C(=O)N(C)CC(=O)N(C)[C@@H](CC(C)C)C(=O)N[C@@H](C(C)C)C(=O)N(C)[C@@H](CC(C)C)C(=O)N[C@@H](C)C(=O)N[C@H](C)C(=O)N(C)[C@@H](CC(C)C)C(=O)N(C)[C@@H](CC(C)C)C(=O)N(C)[C@@H](C(C)C)C(=O)N1C` [Cyclosporin C, cyclosporin C], under setting [11], the “% Absorption” value is on record as 34.5%. Under setting [12], the AUC0-24 was 11.39 μg eq. hr/ml.
Take `C/C=C/C[C@@H](C)[C@@H](O)[C@H]1C(=O)N[C@@H](C(C)C)C(=O)N(C)CC(=O)N(C)[C@@H](CC(C)C)C(=O)N[C@@H](C(C)C)C(=O)N(C)[C@@H](CC(C)C)C(=O)N[C@@H](C)C(=O)N[C@H](C)C(=O)N(C)[C@@H](CC(C)C)C(=O)N(C)[C@@H](CC(C)C)C(=O)N(C)[C@@H](C(C)C)C(=O)N1C` [Cyclosporin D, cyclosporin D]: the immunosuppressive activity entry in data set [1] is “least immunosuppressive activity”.
As to `CCCC[C@@H](C)[C@@H](O)[C@H]1C(=O)N[C@@H](CC)C(=O)N(C)CC(=O)N(C)[C@@H](CC(C)C)C(=O)N[C@@H](C(C)C)C(=O)N(C)[C@@H](CC(C)C)C(=O)N[C@@H](C)C(=O)N[C@H](C)C(=O)N(C)[C@@H](CC(C)C)C(=O)N(C)[C@@H](CC(C)C)C(=O)N(C)[C@@H](C(C)C)C(=O)N1C` [Cyclosporin Dihydro A, dihydro cyclosporin A], the AUC0-24 under setting [12] is 8.5 μg eq. hr/ml.
Take `C/C=C/C[C@@H](C)C[C@H]1C(=O)N[C@@H](CC)C(=O)N(C)CC(=O)N(C)[C@@H](CC(C)C)C(=O)N[C@@H](C(C)C)C(=O)N(C)[C@@H](CC(C)C)C(=O)N[C@@H](C)C(=O)N[C@H](C)C(=O)N(C)[C@@H](CC(C)C)C(=O)N(C)[C@@H](CC(C)C)C(=O)N(C)[C@@H](C(C)C)C(=O)N1C` [Cyclosporin F, cyclosporin F]: the AUC0-24 reads like this: (oral 3H-paclitaxel 9 mg/kg, cyclosporin dose 2 × 10 mg/kg oral) 11.99 μg eq. hr/ml; under setting [12], 8.99 μg eq. hr/ml. Also, for the setting “whole blood radioactivity profiles, 5 mg/kg oral before and with paclitaxel 9 mg/kg”, the “activity in promoting oral absorption of paclitaxel” value is listed as “enhances the oral bioavailability of paclitaxel”. Also, in data set [1], the immunosuppressive activity entry was “does not display immunosuppressive activity”.
Consider `C/C=C/C[C@@H](C)[C@@H](O)[C@H]1C(=O)N[C@@H](CCC)C(=O)N(C)CC(=O)N(C)[C@@H](CC(C)C)C(=O)N[C@@H](C(C)C)C(=O)N(C)[C@@H](CC(C)C)C(=O)N[C@@H](C)C(=O)N[C@H](C)C(=O)N(C)[C@@H](CC(C)C)C(=O)N(C)[C@@H](CC(C)C)C(=O)N(C)[C@@H](C(C)C)C(=O)N1C` [Cyclosporin G, cyclosporin G], for which, under setting [11], the “% Absorption” value amounted to 40.0%. Besides, the AUC0-24 under setting [12] was 13.22 μg eq. hr/ml.
Taken in the same sequence, the figures for `C/C=C/C[C@@H](C)[C@@H](O)[C@H]1C(=O)N[C@@H](CC)C(=O)N(C)CC(=O)N(C)[C@@H](CC(C)C)C(=O)N[C@@H](C(C)C)C(=O)N[C@@H](CC(C)C)C(=O)N[C@@H](C)C(=O)N[C@H](C)C(=O)N(C)[C@@H](CC(C)C)C(=O)N(C)[C@@H](CC(C)C)C(=O)N(C)[C@@H](C(C)C)C(=O)N1C` [Cyclosporin U, cyclosporin U] were 15.2% and 5.02 μg eq. hr/ml.
By t½ is commonly meant the time in which the quantity being followed falls by half. `OCCN(CCO)c1nc(N2CCCCC2)c2nc(N(CCO)CCO)nc(N3CCCCC3)c2n1` [Dipyridamole, dipyridamole] displayed a t½ in data set [2] of 26.6 h.
Regarding `COc1cc([C@@H]2c3cc4c(cc3[C@@H](O[C@@H]3O[C@@H]5CO[C@@H](C)O[C@H]5[C@H](O)[C@H]3O)[C@H]3COC(=O)[C@H]23)OCO4)cc(OC)c1O` [Etoposide, etoposide], in [3], the “mean value of oral bioavailability” value is “approximately 50%”. For the same compound, the Cmax in [4] (Grp A, etoposide only 1/IV) amounted to 2.16 ug*eq/mL; in data set [4] (Grp B, etoposide only 1/PO), 0.03 ug*eq/mL; in data set [4] (setting [13]), 0.12 ug*eq/mL. For the same compound, the t½ in data set [4] (Grp A, etoposide only 1/IV) turned out to be 26.5 h; in data set [4] (Grp B, etoposide only 1/PO), 19.1 h; in data set [4] (setting [13]), 18.1 h. The AUC0-24 in data set [4] (Grp A, etoposide only 1/IV, total radioactivity) was found to be 1080 ng·h/mL; in [4] (Grp B, etoposide only 1/PO), 610 ng·h/mL; in data set [4] (setting [13]) it was 1040 ng·h/mL. For the same compound, the F % in data set [4] (Grp B, etoposide only 1/PO) was 56.5%; in data set [4] (setting [13]) it was 96.3%; in data set [4] (Grp C, etoposide 1/PO with CsA 5/PO before and with, listed as etoposide) it was “about 96%”.
Consider `CC(=O)N1CCN(c2ccc(OCC3COC(Cn4ccnc4)(c4ccc(Cl)cc4Cl)O3)cc2)CC1` (centres unmarked) [Ketoconazole, ketoconazole], for which the t½ in data set [2] was 9.23 h.
In data set [2], `CC(=O)O[C@]1(C(C)=O)CC[C@H]2[C@@H]3C=C(C)C4=CC(=O)CC[C@]4(C)[C@H]3CC[C@@]21C` [Magace, megestrol acetate] yielded a t½ of 23.1 h.
Broadly, the bioavailability is the share of a dose that reaches the circulation, judged against a reference dose that is usually intravenous. High values mean good availability, low ones poor availability. As usually defined, the AUC(0-t) is exposure summed from dosing to a finite time, without extrapolation to infinity. Low readings indicate low exposure, high ones high exposure. As a reminder, the Tmax is the time at which the peak concentration occurs. Take `CC(=O)O[C@H]1C(=O)[C@@]2(C)[C@H]([C@H](OC(=O)c3ccccc3)[C@]3(O)C[C@H](OC(=O)[C@H](O)[C@@H](NC(=O)c4ccccc4)c4ccccc4)C(C)=C1C3(C)C)[C@]1(OC(C)=O)CO[C@@H]1C[C@@H]2O` [Paclitaxel, paclitaxel]: the V in [5] (iv) was 4.236 L/kg. In addition, in data set [5] (po), the “AUC0-[…]” value is 349 ng·h/mL, the “F %” value is given as 1.7% and the V turned out to be 5.029 L/kg. The “steady state plasma levels of paclitaxel achieved” value in [6] is given as “by the third day”. The same compound came in with a bioavailability in “in vivo” (in vivo, po) of under 1%. Further, the AUC(0-t) in the data set “in vivo” (serum, oral, 9 mg/kg) worked out at 80 ng·h/mL. Besides, the response rate with metastatic breast cancer was 27%. Also, the “absorbed when administered orally” value in [7] is reported as “less than 1%”. For the same compound, the “Absolute F” value in data set [8] came out at 0.9%. Also, in data set [9] (NP951001, paclitaxel only 9/IV), the AUC0-24 is 32.04 µg·h/mL. In addition, the AUC0-24 in [9] (NP951001, paclitaxel only 9/PO) was determined as 3.24 µg·h/mL. Moreover, in data set [9] (Sprague Dawley, rat, in vivo, iv), the “% Dose in urine (4-24 hr)” value was 2.2%. Moreover, in data set [9] (setting [14]), the “% Dose in urine (4-24 hr)” value is 1.9%, the AUC0-24 is 3.2 μg eq × hr/ml and the Tmax was 25 h. Also, the AUC0-24 in data set [9] (total radioactivity in blood, IV (A)) came to 32.8 μg eq × hr/ml. Moreover, in data set [10] (setting [14]), the “F (%) Based on AUC0-00” value turned out to be 16.4% and the “F (%) based on AUC0-24 hr” value turned out to be 5.9%. In [10] (setting [15]), this compound had an AUC0-00 of 4.5 μg equiv. hr/mL and an AUC0-24 hr of 1.4 μg equiv. hr/mL. In addition, in [10] (setting [16]), the AUC0-00 amounted to 27.4 μg equiv. hr/mL and the AUC0-24 hr is 23.8 μg equiv. hr/mL.
`CC(=O)[C@H]1CC[C@H]2[C@@H]3CCC4=CC(=O)CC[C@]4(C)[C@H]3CC[C@]12C` [Progesterone, progesterone]: the t½ in [2] was 20.0 h.
On to “dihydro cyclosporin C [Cyclosporin Dihydro C]”, for which the “% Absorption” value under setting [11] amounted to 45.1%. Also, the AUC0-24 under setting [12] is on record as 13.09 μg eq. hr/ml.
